Measurements as given in US20160289663A1, “NOVEL CHIMERIC GENE ATF7IP-PDGFRB OF ACUTE LYMPHOBLASTIC LEUKEMIA” (priority 2013, published 2016).
Structures can show the parent of a compound that is named as a salt.

Experiments:
[1] = test system: ATF7IP-PDGFRB-expressing Ba/F3 cells; assay: Cell proliferation (WST) assay, ATF7IP-PDGFRB Ba/F3 transfectants without conditioned medium; details: for effect on viable cell number: next-generation TKIs, FIG. 13
Procedure: (A) ATF7IP-PDGFRB-expressing Ba/F3 cells in the absence of WEHI-3-conditioned medium (CM) and Mock Ba/F3 cells in the presence of CM were each treated with or without either the PI3 kinase inhibitor LY294002 or the MEK inhibitor PD98059 at the indicated concentrations for 24 hours. Subsequently, the number of living cells was estimated for each type of the cells by WST assay in the same way as in FIG. 5B. The ratio of the OD value obtained from the inhibitor-treated cells relative to that obtained from the inhibitor-untreated cells was calculated and expressed as the means±SEM of triplicates. (B) ATF7IP-PDGFRB-expressing Ba/F3 cells were treated with PD98059 in the presence or absence of CM, and examined in the same way as in (A). […]
The data were analyzed by F-test. P values less than 0.05 were considered significant. All experiments were performed at least three times to calculate means and SEM values.

[2] = test system: recurrent Ph-like acute lymphoblastic leukemia bearing ATF7IP/PDGFRB translocation; assay: Dasatinib monotherapy case report, MRD monitored by leukemia-specific genomic PCR; type: in vivo, human; details: one patient, 66 mg/m^2/day
Procedure: (A) The therapeutic response was evaluated by fluorescence in situ hybridization (FISH), RT-PCR (Kobayashi K., et al., Br J Haematol, 2014, 165, 836-841), and genomic PCR.
This example describes a monotherapy with the tyrosine kinase inhibitor (TKI) dasatinib in a patient with recurrent Ph-like acute lymphoblastic leukemia bearing ATF7IP/PDGFRB translocation.

[3] = test system: myeloid malignancies bearing PDGFRB fusion genes; details: without secondary resistance; Cheah et al., Blood 2014; cited from earlier work
[4] = test system: Mock Ba/F3 cells; assay: Cell proliferation (WST) assay, Mock Ba/F3 cells with WEHI-3-conditioned medium; type: cell-based, mouse; details: 24 hours, presence of conditioned medium, FIG. 10A
Procedure: The data were analyzed by F-test. P values less than 0.05 were considered significant.

[5] = test system: phosphorylation of MAP kinases/AKT and PDGFRB in ATF7IP-PDGFRB-expressing Ba/F3 cells; assay: Immunoblot of MAP kinase/AKT/PDGFRB phosphorylation in ATF7IP-PDGFRB Ba/F3 cells; type: cell-based, mouse; details: immunoblotting, FIG. 11
Procedure: Cell lysates were prepared from the same sample preparations as in FIG. 10. Immunoblot analysis was performed in the same way as in FIG. 8. Abbreviations: None, without inhibitor; LY, with LY294002; and PD, with PD98059.
Immunoblot analysis was performed as in FIG. 8.
Immunoblot analysis was performed as described previously (Kiyokawa, et al., J Biol Chem, 1997, 272, 18656-18665; Tomita, et al., Leukemia Research, 2014, 38, 361-370) using the following antibodies: anti-phosphotyrosine (4G10; Merck Millipore), anti-PDGF receptor β (28E1), anti-phospho-PDGF receptor β Tyr751 (C63G6), anti-phospho-PDGF receptor β Tyr 771 (76D6), anti-phospho-PDGF receptor β Tyr1009 (42F9), anti-phospho-PDGF receptor β Tyr1021 (6F10), anti-phospho-p44/42 MAPK (ERK1/2, Tyr202/Tyr204), anti-phospho-p38 MAPK (Thr180/Tyr182), anti-phospho-JNK (Thr183/Tyr185, 81E11), anti-phospho-AKT (Ser473), anti-phospho-PLCγ1 (Tyr783), anti-Casitas B-lineage lymphoma binding (Cbl), anti-p38 MAPK antibody and anti-JNK antibody (Cell Signaling Technology); anti-ATF7IP (MCAF1) (Abcam, Cambridge, UK); anti-ERK, anti-PLCγ, (BD Biosciences, San Jose, Calif., USA); anti-β-actin (Sigma-Aldrich, St. Louis, Mo.); and horseradish peroxidase (HRP)-conjugated secondary antibody (Dako, Glostrup, Denmark). […]

[6] = Mus musculus, BaF3, 48 h, read-out: viable cell number

SMILES: Cc1nc(Nc2ncc(C(=O)Nc3c(C)cccc3Cl)s2)cc(N2CCN(CCO)CC2)n1 [dasatinib]
- viability at 0.0025 µM [1, 6]: < 10%
- duration of complete molecular remission [2]: ≥ 12 months
- time to disappearance of MRD ([2]; leukemia-specific genomic PCR): ≤ 3 months

SMILES: Cc1ccc(NC(=O)c2ccc(CN3CCN(C)CC3)cc2)cc1Nc1nccc(-c2cccnc2)n1 [imatinib]
- cell proliferation ([1]; IL-3-independent proliferation, exposure to TKI): significantly inhibited in a concentration-dependent manner
- viability at 0.025 µM [1, 6]: < 10%

SMILES: Cc1ccc(NC(=O)c2ccc(CN3CCN(C)CC3)cc2)cc1Nc1nccc(-c2cccnc2)n1 [imatinib mesylate]
- 10-year overall survival rate [3]: 90%

SMILES: Cc1cn(-c2cc(NC(=O)c3ccc(C)c(Nc4nccc(-c5cccnc5)n4)c3)cc(C(F)(F)F)c2)cn1 [nilotinib]
- effect on viable cell number [1]: effectively reduced the viable cell number

SMILES: COc1cccc(-c2cc(=O)c3ccccc3o2)c1N [PD98059]
- cell death ([1]; 24 hours, absence of conditioned medium, FIG. 10A): induced cell death
- MEK inhibitor-induced cell death with simultaneous conditioned medium containing IL3 ([1]; presence of conditioned medium, FIG. 10B): partially avoided
- cell death [4]: not in the Mock-expressing Ba/F3 cells
- phosphorylation of MAP kinase [5]: markedly reduced

SMILES: CNC(=O)c1cc(Oc2ccc(NC(=O)Nc3cc(C(C)(C)C)nn3-c3ccc4ncccc4c3)c(F)c2)ccn1 [rebastinib]
- effect on viable cell number [1]: effectively reduced the viable cell number
